Conditions: Fluid (supercritical or subcritical phases), Coaxial cylinder method

CCCCCC [hexane]
Conditions | thermal conductivity [W/m/K]
511.55 K, 5000 kPa | 0.07163
511.55 K, 5100 kPa | 0.07163
511.55 K, 5300 kPa | 0.07217
511.55 K, 5500 kPa | 0.0724
511.55 K, 5800 kPa | 0.07283
511.55 K, 6000 kPa | 0.07313
511.55 K, 6200 kPa | 0.07344
511.55 K, 6400 kPa | 0.07374
511.55 K, 6600 kPa | 0.07406
511.55 K, 6800 kPa | 0.07437
511.55 K, 6900 kPa | 0.07456
511.55 K, 7100 kPa | 0.07481
511.55 K, 7200 kPa | 0.07501
511.55 K, 7300 kPa | 0.07513
511.55 K, 7500 kPa | 0.07618
511.55 K, 7800 kPa | 0.07658
511.55 K, 8000 kPa | 0.07685
511.55 K, 8200 kPa | 0.07712
511.55 K, 8300 kPa | 0.07719
511.55 K, 8400 kPa | 0.07733
511.55 K, 8500 kPa | 0.07746
511.55 K, 8600 kPa | 0.0776
511.55 K, 8700 kPa | 0.07767
511.55 K, 9000 kPa | 0.07803
511.55 K, 9100 kPa | 0.07815
511.55 K, 9200 kPa | 0.07822
511.55 K, 9300 kPa | 0.07828
511.55 K, 9400 kPa | 0.07837
511.55 K, 9700 kPa | 0.0787
511.55 K, 10000 kPa | 0.07902
511.79 K, 1600 kPa | 0.03961
511.79 K, 1800 kPa | 0.04006
511.79 K, 1900 kPa | 0.04052
511.79 K, 2000 kPa | 0.041
511.79 K, 2090 kPa | 0.04133
511.79 K, 2100 kPa | 0.04148
511.79 K, 2110 kPa | 0.04151
511.79 K, 2200 kPa | 0.04198
511.79 K, 2300 kPa | 0.0427
511.79 K, 2400 kPa | 0.04354
511.79 K, 2500 kPa | 0.04428
511.79 K, 2600 kPa | 0.04543
511.79 K, 2700 kPa | 0.04664
511.79 K, 2800 kPa | 0.04819
511.79 K, 2817 kPa | 0.04857
511.79 K, 2911 kPa | 0.05076
511.79 K, 2958 kPa | 0.052
511.79 K, 2987 kPa | 0.05281
511.79 K, 3000 kPa | 0.05337
511.79 K, 3049 kPa | 0.05564
511.79 K, 3076 kPa | 0.05734
511.79 K, 3093 kPa | 0.05872
511.79 K, 3101 kPa | 0.05933
511.79 K, 3113 kPa | 0.06039
511.79 K, 3121 kPa | 0.06126
511.79 K, 3133 kPa | 0.06272
511.79 K, 3143 kPa | 0.06414
511.79 K, 3151 kPa | 0.06537
511.79 K, 3156 kPa | 0.06613
511.79 K, 3163 kPa | 0.06743
511.79 K, 3167 kPa | 0.06811
511.79 K, 3169 kPa | 0.06851
511.79 K, 3172 kPa | 0.06906
511.79 K, 3175 kPa | 0.06962
511.79 K, 3177 kPa | 0.07014
511.79 K, 3179 kPa | 0.07048
511.79 K, 3181 kPa | 0.07092
511.79 K, 3183 kPa | 0.07134
511.79 K, 3185 kPa | 0.07166
511.79 K, 3186 kPa | 0.07193
511.79 K, 3188 kPa | 0.07227
511.79 K, 3189 kPa | 0.07257
511.79 K, 3190 kPa | 0.07273
511.79 K, 3191 kPa | 0.07304
511.79 K, 3192 kPa | 0.07319
511.79 K, 3193 kPa | 0.07344
511.79 K, 3194 kPa | 0.07367
511.79 K, 3195 kPa | 0.07382
511.79 K, 3196 kPa | 0.07398
511.79 K, 3197 kPa | 0.07424
511.79 K, 3198 kPa | 0.07446
511.79 K, 3199 kPa | 0.07463
511.79 K, 3200 kPa | 0.07479
511.79 K, 3202 kPa | 0.07528
511.79 K, 3204 kPa | 0.07561
511.79 K, 3205 kPa | 0.07578
511.79 K, 3206 kPa | 0.07595
511.79 K, 3209 kPa | 0.07635
511.79 K, 3212 kPa | 0.07676
511.79 K, 3214 kPa | 0.077
511.79 K, 3216 kPa | 0.07724
511.79 K, 3219 kPa | 0.07745
511.79 K, 3221 kPa | 0.07749
511.79 K, 3223 kPa | 0.07756
511.79 K, 3226 kPa | 0.07759
511.79 K, 3231 kPa | 0.07766
511.79 K, 3234 kPa | 0.07766
511.79 K, 3236 kPa | 0.07745
511.79 K, 3237 kPa | 0.07745
511.79 K, 3240 kPa | 0.07732
511.79 K, 3243 kPa | 0.07697
511.79 K, 3246 kPa | 0.07663
511.79 K, 3247 kPa | 0.07629
511.79 K, 3251 kPa | 0.07496
511.79 K, 3253 kPa | 0.07496
511.79 K, 3256 kPa | 0.07463
511.79 K, 3257 kPa | 0.07431
511.79 K, 3264 kPa | 0.07399
511.79 K, 3265 kPa | 0.07367
511.79 K, 3269 kPa | 0.07336
511.79 K, 3270 kPa | 0.07336
511.79 K, 3276 kPa | 0.07336
511.79 K, 3278 kPa | 0.07336
511.79 K, 3280 kPa | 0.07336
511.79 K, 3285 kPa | 0.07336
511.79 K, 3291 kPa | 0.07243
511.79 K, 3293 kPa | 0.07243
511.79 K, 3295 kPa | 0.07243
511.79 K, 3300 kPa | 0.07213
511.79 K, 3301 kPa | 0.07183
511.79 K, 3306 kPa | 0.07183
511.79 K, 3310 kPa | 0.07153
511.79 K, 3313 kPa | 0.07123
511.79 K, 3315 kPa | 0.07123
511.79 K, 3319 kPa | 0.07122
511.79 K, 3321 kPa | 0.07122
511.79 K, 3325 kPa | 0.07122
511.79 K, 3327 kPa | 0.07122
511.79 K, 3330 kPa | 0.07122
511.79 K, 3332 kPa | 0.07122
511.79 K, 3335 kPa | 0.07122
511.79 K, 3340 kPa | 0.07122
511.79 K, 3346 kPa | 0.07122
511.79 K, 3350 kPa | 0.07123
511.79 K, 3353 kPa | 0.07123
511.79 K, 3355 kPa | 0.07123
511.79 K, 3360 kPa | 0.07123
511.79 K, 3365 kPa | 0.07064
511.79 K, 3367 kPa | 0.07064
511.79 K, 3368 kPa | 0.07064
511.79 K, 3370 kPa | 0.07064
511.79 K, 3375 kPa | 0.07064
511.79 K, 3380 kPa | 0.07064
511.79 K, 3385 kPa | 0.07064
511.79 K, 3390 kPa | 0.07064
511.79 K, 3395 kPa | 0.07064
511.79 K, 3400 kPa | 0.07064
511.79 K, 3410 kPa | 0.07064
511.79 K, 3420 kPa | 0.07065
511.79 K, 3440 kPa | 0.07065
511.79 K, 3460 kPa | 0.07065
511.79 K, 3500 kPa | 0.07041
511.79 K, 3600 kPa | 0.06993
511.79 K, 3657 kPa | 0.06978
511.79 K, 3700 kPa | 0.06973
511.79 K, 3750 kPa | 0.06973
511.79 K, 3800 kPa | 0.06973
511.79 K, 3850 kPa | 0.06973
511.79 K, 3900 kPa | 0.06973
511.79 K, 3950 kPa | 0.06975
511.79 K, 3980 kPa | 0.06975
511.79 K, 4000 kPa | 0.06988
511.79 K, 4030 kPa | 0.06995
511.79 K, 4100 kPa | 0.07011
